Measured values published in ChEMBL document CHEMBL1201862, “PubChem BioAssay data set” (2004).
Values belong to the compound of their own block, whether it stands above or below them. Active and inactive are the calls of the source.

Key:
Coagulation factor XII = biological target: T1, Coagulation factor XII (Homo sapiens, UniProt P00748); test: activated coagulation factor XII inhibitor potency, concentration-effect curve, cell-free (AID 716); assay type: functional
T1 sequence (P00748 whole entry): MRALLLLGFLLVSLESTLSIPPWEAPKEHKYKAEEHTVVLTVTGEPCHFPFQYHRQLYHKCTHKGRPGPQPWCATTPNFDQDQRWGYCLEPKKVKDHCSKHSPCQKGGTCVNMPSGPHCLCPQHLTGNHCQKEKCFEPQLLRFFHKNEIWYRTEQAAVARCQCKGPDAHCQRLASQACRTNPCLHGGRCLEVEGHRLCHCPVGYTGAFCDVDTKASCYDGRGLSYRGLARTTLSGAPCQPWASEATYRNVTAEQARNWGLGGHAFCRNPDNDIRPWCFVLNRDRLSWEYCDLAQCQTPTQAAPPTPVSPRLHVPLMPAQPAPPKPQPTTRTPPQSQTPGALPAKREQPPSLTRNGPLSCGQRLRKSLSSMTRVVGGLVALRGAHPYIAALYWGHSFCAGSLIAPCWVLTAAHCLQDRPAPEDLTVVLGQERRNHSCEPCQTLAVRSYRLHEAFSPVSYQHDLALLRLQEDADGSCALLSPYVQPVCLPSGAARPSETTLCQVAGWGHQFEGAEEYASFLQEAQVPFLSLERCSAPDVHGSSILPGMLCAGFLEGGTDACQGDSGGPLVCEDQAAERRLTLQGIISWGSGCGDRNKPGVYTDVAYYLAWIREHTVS

[1] = biological target: Peroxisome proliferator-activated receptor gamma/Nuclear receptor coactivator 1 (Homo sapiens, UniProt P37231); test: (§1) TR-FRET dose response biochemical High Throughput Screening assay for agonists of the steroid receptor coactivator 1 (SRC-1) recruitment by the peroxisome proliferator-activated receptor gamma (PPAR gamma): non-selective agonists. [Related pubchem assays (depositor defined):AID1300, AID1808, AID504735, AID631]; assay type: protein assay
[2] = biological target: Peroxisome proliferator-activated receptor gamma/Nuclear receptor coactivator 3 (Homo sapiens, UniProt P37231); test: as §1, with “3 (SRC-3)” for “1 (SRC-1)”, “assays: 1301 (Confirmation screen.), 1048 (Primary screen.)]” for “assays (depositor defined):AID1300, AID1808, AID504735, AID631]”; assay type: functional
Chain of Peroxisome proliferator-activated receptor gamma/Nuclear receptor coactivator 3 (P37231 whole entry): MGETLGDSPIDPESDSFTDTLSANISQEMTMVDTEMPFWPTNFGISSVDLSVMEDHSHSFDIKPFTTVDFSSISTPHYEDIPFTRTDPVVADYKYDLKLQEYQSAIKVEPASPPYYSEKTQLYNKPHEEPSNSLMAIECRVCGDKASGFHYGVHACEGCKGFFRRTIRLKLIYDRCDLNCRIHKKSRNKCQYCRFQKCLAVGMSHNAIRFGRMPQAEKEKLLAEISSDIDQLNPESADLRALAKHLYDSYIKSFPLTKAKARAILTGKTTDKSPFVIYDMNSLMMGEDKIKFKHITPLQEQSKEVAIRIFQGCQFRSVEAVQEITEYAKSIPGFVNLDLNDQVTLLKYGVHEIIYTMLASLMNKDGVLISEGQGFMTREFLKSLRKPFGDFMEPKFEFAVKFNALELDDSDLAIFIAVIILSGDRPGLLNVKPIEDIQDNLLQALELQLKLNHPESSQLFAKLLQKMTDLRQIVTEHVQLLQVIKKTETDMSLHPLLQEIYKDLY
Chain of Peroxisome proliferator-activated receptor gamma/Nuclear receptor coactivator 3 (Q9Y6Q9 whole entry, further chain): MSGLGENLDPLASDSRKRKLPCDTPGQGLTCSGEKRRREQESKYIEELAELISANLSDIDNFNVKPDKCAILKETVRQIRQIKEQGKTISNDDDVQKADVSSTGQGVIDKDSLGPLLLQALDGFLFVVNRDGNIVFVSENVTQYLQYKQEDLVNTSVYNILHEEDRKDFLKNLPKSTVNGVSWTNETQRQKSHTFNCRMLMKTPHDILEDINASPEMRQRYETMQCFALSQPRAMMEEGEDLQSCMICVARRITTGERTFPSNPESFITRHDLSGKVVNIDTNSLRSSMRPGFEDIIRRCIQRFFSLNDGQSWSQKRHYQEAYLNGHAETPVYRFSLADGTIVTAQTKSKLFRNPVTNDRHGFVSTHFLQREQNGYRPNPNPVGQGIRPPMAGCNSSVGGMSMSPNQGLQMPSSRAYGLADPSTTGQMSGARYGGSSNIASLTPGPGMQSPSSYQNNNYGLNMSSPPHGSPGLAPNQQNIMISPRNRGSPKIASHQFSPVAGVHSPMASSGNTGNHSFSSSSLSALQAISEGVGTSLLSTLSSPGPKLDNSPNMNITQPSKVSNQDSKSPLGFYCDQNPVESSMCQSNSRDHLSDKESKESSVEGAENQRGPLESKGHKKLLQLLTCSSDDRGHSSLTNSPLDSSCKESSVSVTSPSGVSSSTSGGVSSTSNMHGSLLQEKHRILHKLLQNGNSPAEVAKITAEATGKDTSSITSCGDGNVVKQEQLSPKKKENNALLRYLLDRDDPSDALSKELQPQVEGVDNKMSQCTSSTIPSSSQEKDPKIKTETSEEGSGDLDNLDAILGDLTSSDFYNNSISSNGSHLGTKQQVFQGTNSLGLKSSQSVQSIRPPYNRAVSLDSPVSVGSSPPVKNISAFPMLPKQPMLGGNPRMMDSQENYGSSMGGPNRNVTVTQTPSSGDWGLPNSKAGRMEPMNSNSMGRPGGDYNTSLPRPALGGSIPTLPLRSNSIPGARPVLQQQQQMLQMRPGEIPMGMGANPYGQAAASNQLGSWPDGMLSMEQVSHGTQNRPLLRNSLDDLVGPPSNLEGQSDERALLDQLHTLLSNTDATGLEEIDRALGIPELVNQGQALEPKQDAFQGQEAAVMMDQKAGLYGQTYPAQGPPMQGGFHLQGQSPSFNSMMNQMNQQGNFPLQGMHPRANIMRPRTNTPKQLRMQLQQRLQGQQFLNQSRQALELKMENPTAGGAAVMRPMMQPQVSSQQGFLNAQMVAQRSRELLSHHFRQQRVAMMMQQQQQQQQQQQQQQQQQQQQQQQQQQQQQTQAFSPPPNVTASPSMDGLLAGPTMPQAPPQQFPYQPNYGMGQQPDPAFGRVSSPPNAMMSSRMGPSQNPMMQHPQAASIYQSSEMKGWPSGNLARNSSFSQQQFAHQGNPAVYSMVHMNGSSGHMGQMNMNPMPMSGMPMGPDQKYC

[3] = biological target: Peroxisome proliferator-activated receptor gamma/Nuclear receptor coactivator 2 (Homo sapiens, UniProt P37231); test: TR-FRET dose response biochemical High Throughput Screening assay for agonists of the steroid receptor coactivator 2 (SRC-2) recruitment by the peroxisome proliferator-activated receptor gamma (PPAR gamma): non-selective agonists. [Related pubchem assays: 1297, 1032 ]; assay type: functional
[4] = biological target: Glyceraldehyde-3-phosphate dehydrogenase (Homo sapiens, UniProt P04406)
Chain of Glyceraldehyde-3-phosphate dehydrogenase (P04406 whole entry): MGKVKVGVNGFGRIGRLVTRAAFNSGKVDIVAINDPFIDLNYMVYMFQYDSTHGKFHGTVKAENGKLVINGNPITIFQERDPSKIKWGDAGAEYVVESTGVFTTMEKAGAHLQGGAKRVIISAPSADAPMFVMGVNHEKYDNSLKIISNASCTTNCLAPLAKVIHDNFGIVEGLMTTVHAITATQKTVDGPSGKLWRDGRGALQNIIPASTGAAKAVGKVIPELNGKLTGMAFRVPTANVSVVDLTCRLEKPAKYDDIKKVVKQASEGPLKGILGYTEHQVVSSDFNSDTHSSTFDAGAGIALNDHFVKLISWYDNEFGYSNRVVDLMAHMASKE

[5] = biological target: Alkaline phosphatase, placental type (Homo sapiens, UniProt P05187); test: human placental alkaline phosphatase inhibition – biochemical, luminescence, confirmation (AID 1512); assay type: functional
Chain of Alkaline phosphatase, placental type (P05187 whole entry): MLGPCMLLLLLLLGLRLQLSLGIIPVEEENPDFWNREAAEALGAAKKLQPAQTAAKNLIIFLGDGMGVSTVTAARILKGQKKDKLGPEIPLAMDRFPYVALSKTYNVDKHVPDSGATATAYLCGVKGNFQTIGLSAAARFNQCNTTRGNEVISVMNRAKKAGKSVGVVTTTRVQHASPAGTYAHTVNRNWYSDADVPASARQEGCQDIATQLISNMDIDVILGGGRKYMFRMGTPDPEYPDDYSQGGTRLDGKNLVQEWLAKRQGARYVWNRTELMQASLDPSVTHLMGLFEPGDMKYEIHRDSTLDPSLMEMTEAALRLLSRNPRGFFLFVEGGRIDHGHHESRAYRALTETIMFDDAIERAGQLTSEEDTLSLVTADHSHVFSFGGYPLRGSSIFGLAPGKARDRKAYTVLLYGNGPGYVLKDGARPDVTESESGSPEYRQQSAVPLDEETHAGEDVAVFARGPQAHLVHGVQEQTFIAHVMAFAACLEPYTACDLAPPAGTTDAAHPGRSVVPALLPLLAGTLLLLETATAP

[6] = biological target: T2, Alkaline phosphatase, tissue-nonspecific isozyme (Homo sapiens, UniProt P05186); test: potency against alkaline phosphatase TNAP – biochemical, luminescent, dose response, SAR follow-up (AID 1056)
T2 sequence (P05186 whole entry): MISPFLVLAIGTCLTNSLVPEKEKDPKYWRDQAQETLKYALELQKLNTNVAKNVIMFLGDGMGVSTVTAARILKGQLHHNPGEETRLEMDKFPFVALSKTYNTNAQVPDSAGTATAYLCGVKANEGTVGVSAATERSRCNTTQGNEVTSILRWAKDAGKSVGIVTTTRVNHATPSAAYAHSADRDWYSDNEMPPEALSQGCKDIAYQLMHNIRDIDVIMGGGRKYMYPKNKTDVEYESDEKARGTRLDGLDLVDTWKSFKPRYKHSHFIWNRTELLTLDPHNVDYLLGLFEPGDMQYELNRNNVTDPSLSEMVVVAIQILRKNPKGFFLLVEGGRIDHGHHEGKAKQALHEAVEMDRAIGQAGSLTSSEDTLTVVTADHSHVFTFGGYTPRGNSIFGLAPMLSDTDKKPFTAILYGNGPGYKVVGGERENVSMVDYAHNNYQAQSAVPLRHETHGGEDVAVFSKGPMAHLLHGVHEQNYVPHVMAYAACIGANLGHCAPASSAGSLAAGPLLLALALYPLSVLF

Bcl-2-related protein A1 = biological target: T3, Bcl-2-related protein A1 (Mus musculus, UniProt Q07440); assay type: functional;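 also: confirmatory dose–response counterscreen on Bfl-1, used to check hits from a UBC13 polyubiquitin inhibitor campaign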
T3 sequence (Q07440 whole entry): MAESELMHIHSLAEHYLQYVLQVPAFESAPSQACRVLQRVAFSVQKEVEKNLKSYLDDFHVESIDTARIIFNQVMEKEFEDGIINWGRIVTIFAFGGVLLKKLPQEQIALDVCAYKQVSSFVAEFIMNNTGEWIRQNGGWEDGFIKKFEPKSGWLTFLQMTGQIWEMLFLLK

[7] = biological target: T4, Ubiquitin-conjugating enzyme E2 N (Homo sapiens, UniProt P61088); assay type: functional
T4 sequence (P61088 whole entry): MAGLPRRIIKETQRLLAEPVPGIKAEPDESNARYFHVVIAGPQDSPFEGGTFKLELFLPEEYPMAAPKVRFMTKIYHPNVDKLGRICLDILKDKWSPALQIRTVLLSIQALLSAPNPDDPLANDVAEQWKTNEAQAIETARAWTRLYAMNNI

[8] = biological target: T4, Ubiquitin-conjugating enzyme E2 N; assay type: functional; remark: listed apart in the source
[9] = NIH-3T3 fibroblast cytotoxicity, dose response, cytotoxicity control, cell-based, fluorescence, Alamar Blue, secondary assay (AID 2327); assay type: functional;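 also: NIH-3T3 mouse fibroblasts cultured with fluconazole at 8 µg/mL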
[10] = fluconazole-exposed Candida albicans growth modulators – fluorescence, retest, confirmation (AID 2467); assay type: functional, cell-based
[11] = Trypanosoma cruzi growth suppression in host cells – NIH3T3 host cells, beta-gal luminescence, confirmation (AID 2044); assay type: functional, cell-based;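 also: intracellular parasites grown in NIH/3T3 mouse fibroblasts as host cells; luminescent beta-galactosidase reporter signal from transgenic T. cruzi replicating inside host cells; inhibitors lower the luminescence signal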
[12] = viability of PTEN-deleted HCT116 cells – cell-based, HCT116 PTEN knockout, dose response (AID 1047); assay type: functional;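 also: HCT116 colon tumor cells with PTEN knocked out; cells exposed to compound for 60 hours before readout; potency for loss of cell viability measured by luminescence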
[13] = NIH3T3 cell viability loss – ATP luminescence, mouse fibroblasts, counter-screen, dose response (AID 2010); assay type: functional, cell-based;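 also: cells exposed to compound for about 90 hours before reading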
[14] = viability of HCT116 lacking mutant beta-catenin – cell-based, human colon tumor, dose response (AID 1045); assay type: functional;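 also: HCT116 colon tumor cells with beta catenin knocked out; cells exposed to compound for 60 hours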
Beta-galactosidase = Beta-galactosidase (Escherichia coli, UniProt Q8VNN2); test: detection-enzyme interference by beta-gal modulators – biochemical, E. coli enzyme, set 3, artefact control for CCR6 antagonist project, dose response (AID 504712); assay type: functional
Chain of Beta-galactosidase (Q8VNN2 whole entry): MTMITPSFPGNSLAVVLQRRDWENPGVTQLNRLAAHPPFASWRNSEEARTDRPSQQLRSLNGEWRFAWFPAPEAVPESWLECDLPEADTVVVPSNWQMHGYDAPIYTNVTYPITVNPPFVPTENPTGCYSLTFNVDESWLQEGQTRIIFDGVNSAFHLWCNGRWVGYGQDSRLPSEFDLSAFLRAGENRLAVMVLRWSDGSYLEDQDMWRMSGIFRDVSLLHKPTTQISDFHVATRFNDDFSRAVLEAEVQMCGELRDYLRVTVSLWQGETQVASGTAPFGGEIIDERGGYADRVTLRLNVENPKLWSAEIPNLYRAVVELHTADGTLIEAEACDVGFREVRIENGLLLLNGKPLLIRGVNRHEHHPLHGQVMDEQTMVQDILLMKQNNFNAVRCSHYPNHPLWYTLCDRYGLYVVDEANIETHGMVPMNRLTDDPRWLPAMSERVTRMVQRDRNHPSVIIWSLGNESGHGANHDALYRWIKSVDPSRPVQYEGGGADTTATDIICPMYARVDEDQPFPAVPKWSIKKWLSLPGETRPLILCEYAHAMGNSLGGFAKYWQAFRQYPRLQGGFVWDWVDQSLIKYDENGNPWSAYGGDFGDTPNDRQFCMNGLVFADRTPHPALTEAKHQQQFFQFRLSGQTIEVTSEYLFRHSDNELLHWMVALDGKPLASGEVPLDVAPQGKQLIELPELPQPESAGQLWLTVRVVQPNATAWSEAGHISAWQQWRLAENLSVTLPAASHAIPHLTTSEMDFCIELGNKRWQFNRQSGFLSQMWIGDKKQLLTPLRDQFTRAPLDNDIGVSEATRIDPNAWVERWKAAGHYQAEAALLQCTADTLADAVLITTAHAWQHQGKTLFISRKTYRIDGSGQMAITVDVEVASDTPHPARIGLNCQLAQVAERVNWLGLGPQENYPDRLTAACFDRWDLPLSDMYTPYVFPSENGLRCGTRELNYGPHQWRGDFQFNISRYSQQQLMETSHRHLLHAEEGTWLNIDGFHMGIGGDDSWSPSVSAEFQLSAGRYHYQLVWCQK

HEK293 [15] = test: inhibition of NOD1-driven NF-kB reporter – cell-based, luminescence, uHTS, primary screen (AID 1578); assay type: functional; settings: Homo sapiens
HEK293 [16] = test: cells; assay type: functional, cell-based; settings: Homo sapiens
HEK293 [17] = test: cells; assay type: functional, cell-based; settings: Homo sapiens; remark: listed apart in the source
[18] = biological target: Nucleotide-binding oligomerization domain-containing protein 2 (Homo sapiens, UniProt Q9HC29); test: inhibition of NOD2-driven NF-kB reporter – cell-based, luminescence, uHTS, HEK293 (AID 1566); assay type: functional
Chain of Nucleotide-binding oligomerization domain-containing protein 2 (Q9HC29 whole entry, the tested form may be a part): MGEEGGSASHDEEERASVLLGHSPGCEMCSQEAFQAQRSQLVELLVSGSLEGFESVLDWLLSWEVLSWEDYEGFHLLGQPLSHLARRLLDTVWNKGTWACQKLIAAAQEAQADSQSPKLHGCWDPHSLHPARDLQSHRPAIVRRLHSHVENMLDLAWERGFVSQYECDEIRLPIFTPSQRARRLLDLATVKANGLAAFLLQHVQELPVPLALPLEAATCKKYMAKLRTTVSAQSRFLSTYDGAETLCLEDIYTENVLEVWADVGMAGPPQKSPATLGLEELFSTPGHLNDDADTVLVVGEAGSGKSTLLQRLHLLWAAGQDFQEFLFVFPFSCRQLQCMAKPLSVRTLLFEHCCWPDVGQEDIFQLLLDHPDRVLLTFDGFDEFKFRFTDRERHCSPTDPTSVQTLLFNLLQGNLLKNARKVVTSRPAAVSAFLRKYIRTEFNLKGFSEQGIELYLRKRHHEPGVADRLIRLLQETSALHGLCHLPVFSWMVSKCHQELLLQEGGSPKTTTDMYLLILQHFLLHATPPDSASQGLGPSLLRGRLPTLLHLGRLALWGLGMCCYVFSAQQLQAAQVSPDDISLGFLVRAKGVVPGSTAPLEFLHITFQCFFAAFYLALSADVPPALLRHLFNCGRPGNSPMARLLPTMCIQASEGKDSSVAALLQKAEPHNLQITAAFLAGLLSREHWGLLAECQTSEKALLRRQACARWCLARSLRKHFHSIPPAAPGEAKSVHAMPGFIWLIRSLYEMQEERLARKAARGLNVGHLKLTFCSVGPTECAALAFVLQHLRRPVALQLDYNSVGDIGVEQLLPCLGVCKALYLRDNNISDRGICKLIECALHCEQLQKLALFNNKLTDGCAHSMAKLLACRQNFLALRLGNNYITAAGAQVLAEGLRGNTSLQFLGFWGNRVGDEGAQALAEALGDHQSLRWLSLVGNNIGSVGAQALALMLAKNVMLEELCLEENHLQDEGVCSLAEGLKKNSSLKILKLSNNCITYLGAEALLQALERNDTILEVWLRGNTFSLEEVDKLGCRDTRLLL

HEK293 [19] = test: NOD2 signaling inhibitors in MDP-stimulated cells, cell-based, uHTS, luminescence (AID 2001); assay type: functional; settings: Homo sapiens
HEK293 [20] = test: cells; assay type: functional, cell-based; settings: Homo sapiens; remark: listed apart in the source

IC50 (Coagulation factor XII): > 50 µM (inactive)
SMILES: CCOC(=O)c1sc2ncnc(N3CCN(C(=O)OCC)CC3)c2c1C

IC50 (Coagulation factor XII): > 50 µM (inactive)
SMILES: C=CCn1c(COc2ccc(CC)cc2)nnc1SCC(=O)N(C)C1CCS(=O)(=O)C1 (configuration not stated)

EC50 [1]: 13 µM (inactive) | EC50 [2]: > 79.4 µM (not active) | EC50 [3]: 10 µM (not active)
SMILES: COc1cc2oc(=O)c(Br)c(C)c2c(OC)c1OC

IC50 (Coagulation factor XII): > 50 µM (inactive)
SMILES: CCN(CC)S(=O)(=O)c1ccc(C(=O)NCC(c2cccs2)N2CCOCC2)cc1 (configuration not stated)

IC50 [4]: > 100 µM (not active) | IC50 [5]: > 100 µM (inactive) | IC50 [6]: > 100 µM (inactive)
SMILES: Nc1nc(Cc2cccc(Br)c2)n(-c2ccccc2)n1

IC50 [4]: > 100 µM (not active) | IC50 [5]: > 100 µM (inactive) | IC50 [6]: > 100 µM (inactive)
SMILES: COc1ccc(-c2nnc3oc(O)c(CCO)c(C)c2-3)cc1

IC50 [5]: 1.56 µM (active) | IC50 [6]: 6.71 µM (active)
SMILES: Cc1cc(C)c(C#N)c(SCC(=O)c2ccc(O)c(O)c2)n1

IC50 (Bcl-2-related protein A1): > 20 µM (inactive) | IC50 [7]: 14.2 µM (active) | IC50 [8]: 6.38 µM (active)
SMILES: CCCN1CCN(C(=O)C2CCN(c3ncnc4c3nc3n4CCCCC3)CC2)CC1

SMILES: N=C(N)N/N=C/c1ccc(OCc2ccc(Cl)cc2)cc1
EC50 [9]: > 150 µM (inactive) | EC50 [10]: > 38 µM (not active) | EC50 [11]: 1.93 µM (active) | EC50 [12]: 3.74 µM (active) | EC50 [13]: > 60 µM (inconclusive) | EC50 [14]: 3.25 µM (active) | IC50 (Bcl-2-related protein A1): > 20 µM (inactive) | IC50 [7]: 13 µM (active) | IC50 (Beta-galactosidase): > 66.6 µM (inactive) | IC50 [8]: 12.4 µM (active)

SMILES: CC(/C=C/c1ccccc1)=N/NC(=O)c1cccc(Br)c1
EC50 (HEK293 [15]): 3.65 µM (active) | IC50 (HEK293 [16]): > 20 µM (inactive) | IC50 (HEK293 [17]): > 20 µM (inactive) | EC50 [18]: > 20 µM (inactive) | IC50 (HEK293 [19]): 2.7 µM (active) | IC50 (HEK293 [20]): > 20 µM (inactive) | IC50 (Beta-galactosidase): > 66.6 µM (inactive)

EC50 [1]: > 79.4 µM (inactive) | EC50 [2]: > 79.4 µM (not active) | EC50 [3]: 47.6 µM (not active)
SMILES: Cc1ccccc1-c1ccc(/C=N/c2c(C)n(C)n(-c3ccccc3)c2=O)o1
